Assay results from paper PMC12736120, “First-in-Human Phase I Clinical Trial of SLC-391, a Novel and Selective AXL Inhibitor, in Patients with Advanced Solid Tumours” (Pharmaceuticals, 2025).
Read-outs that look alike come from different tables or passages of the source.

Test: Plasma pharmacokinetics, QD and BID cohorts (non-compartmental)
Format: in vivo, human
Settings: for Cmax / Tmax / AUC / AUC(0-t) / concentration at 21 days: human, plasma, oral; for concentration at 21 days: read-out: Cmin, range across cohorts
Procedure: PK parameters were calculated by standard non-compartmental methods for SLC-391. Due to the long half-life of SLC-391 compared to the dosing interval, it was not possible to calculate a number of PK parameters, including plasma half-life and rate of elimination. Accumulation was assessed from the mean accumulation ratio factor (AR factor) calculated as the repeated dose (C1D21) mean value/single dose (C1D1) mean value for the PK parameters Cmax, AUC0–12, and AUC0–last for each dose group.
During QD dosing, blood samples for determination of SLC-391 plasma concentrations were collected predose and at 0.5, 1, 2, 3, 4, 6, 8, and 24 h after SLC-391 administration on cycle 1 day 1 (C1D1) and cycle 1 day 21 (C1D21). During BID dosing, blood samples were collected predose and at 1, 2, 3, 4, 6, 8, and 12 h after the first daily dose (before the second daily dose). Where possible, further samples were then collected at 13, 14, 22, and 24 h after the initial dose (predose C1D2). Blood samples were also collected on C1D21 (steady state) predose and at 1, 2, 3, 4, 6, 8, and 12 h after the first daily dose (before the second daily dose). Where possible, further samples were then collected at 13, 14, 22, and 24 h after the initial C1D21 dose (predose C2D1). An additional blood sample was also taken, where possible, at the end of treatment (EOT) visit.
After collection, blood samples were centrifuged, and plasma was separated and stored at −80 °C. Plasma concentrations of SLC-391 were measured by a validated analytical method involving liquid–liquid extraction followed by high-performance liquid chromatography (HPLC)–mass/mass spectroscopy assay using a Water Quattro Premier tandem quadrupole mass spectroscopy with Waters MassLynx data acquisition and processing software. Plasma analysis was carried out by Microconstants (San Diego, CA, USA) in compliance with the US FDA GLP regulations. The calibration range of the assay was from 0.100 to 100 ng/mL. Quality control samples prepared at 4 different analyte concentrations were analysed with each batch of samples against a separately prepared calibration standard. PK parameters were collected following single (day 1) and repeat dose (day 21) administration. PK parameters were summarised with appropriate descriptive statistics where possible (e.g., mean, geometric mean, median, maximum, minimum, and coefficient of variation). Descriptive PK parameters were determined by standard non-compartmental methods based on the concentration–time data of each subject. The nominal time was used for descriptive statistics calculations, and the actual sample collection times were used in PK analyses. PK analyses were performed using validated Phoenix WinNonlin Professional 8.3 (Certara, L.P., St. Louis, MO, USA).

## Nc1ncc(-c2cnn(C3CCNCC3)c2)cc1-c1nnc(CC2CC2)o1 [SLC-391, 3-(5-[cyclopropylmethyl]-1,3,4-oxadiazol-2-yl)-5-(1-[piperidin-4-yl]-1H-pyrazol-4-yl)-pyridin-2-amine]
110 mg, 110 mg BID, C1D1, median, n=3, plasma, read-out: Cmax
  Cmax: 93.1 ng/mL
110 mg, 110 mg BID, C1D1, median, n=3, plasma, read-out: Tmax
  Tmax: 3 h
110 mg, 110 mg BID, C1D21, mean, n=3, plasma, read-out: AUC0–12
  AUC: 2260 ng·h/mL
110 mg, 110 mg BID, C1D21, mean, n=3, plasma, read-out: AUC0–last
  AUC(0-t): 4280 ng·h/mL
110 mg, 110 mg BID, C1D21, mean, n=3, plasma, read-out: Cmax
  Cmax: 249 ng/mL
110 mg, 110 mg BID, C1D21, mean, n=3, plasma, read-out: Tmax
  Tmax: 2.4 h
110 mg, 110 mg BID, C1D21, median, n=3, plasma, read-out: AUC0–12
  AUC: 1390 ng·h/mL
110 mg, 110 mg BID, C1D21, median, n=3, plasma, read-out: AUC0–last
  AUC(0-t): 2560 ng·h/mL
110 mg, 110 mg BID, C1D21, median, n=3, plasma, read-out: Cmax
  Cmax: 187 ng/mL
110 mg, 110 mg BID, C1D21, median, n=3, plasma, read-out: Tmax
  Tmax: 2.1 h
125 mg, QD, C1D1, read-out: AUC0–12, Mean
  AUC: 672 ng·h/mL
125 mg, QD, C1D1, read-out: AUC0–12, Median
  AUC: 877 ng·h/mL
125 mg, QD, C1D1, read-out: AUC0–last, Mean
  AUC(0-t): 1040 ng·h/mL
125 mg, QD, C1D1, read-out: AUC0–last, Median
  AUC(0-t): 1280 ng·h/mL
125 mg, QD, C1D1, read-out: Cmax, Mean
  Cmax: 103 ng/mL
125 mg, QD, C1D1, read-out: Cmax, Median
  Cmax: 123 ng/mL
125 mg, QD, C1D1, read-out: Tmax, Mean
  Tmax: 2 h
125 mg, QD, C1D1, read-out: Tmax, Median
  Tmax: 2.1 h
125 mg, QD, C1D21, read-out: AUC0–12, Mean
  AUC: 1120 ng·h/mL
125 mg, QD, C1D21, read-out: AUC0–12, Median
  AUC: 1380 ng·h/mL
125 mg, QD, C1D21, read-out: AUC0–last, Mean
  AUC(0-t): 1840 ng·h/mL
125 mg, QD, C1D21, read-out: AUC0–last, Median
  AUC(0-t): 2340 ng·h/mL
125 mg, QD, C1D21, read-out: Cmax, Mean
  Cmax: 147 ng/mL
125 mg, QD, C1D21, read-out: Cmax, Median
  Cmax: 188 ng/mL
125 mg, QD, C1D21, read-out: Tmax, Mean
  Tmax: 2 h
125 mg, QD, C1D21, read-out: Tmax, Median
  Tmax: 2 h
150 mg, 150 mg BID, C1D1, mean, n=5, plasma, read-out: AUC0–12
  AUC: 1050 ng·h/mL
150 mg, 150 mg BID, C1D1, mean, n=6, plasma, read-out: AUC0–last
  AUC(0-t): 2330 ng·h/mL
150 mg, 150 mg BID, C1D1, mean, n=6, plasma, read-out: Cmax
  Cmax: 236 ng/mL
150 mg, 150 mg BID, C1D1, mean, n=6, plasma, read-out: Tmax
  Tmax: 9 h
150 mg, 150 mg BID, C1D1, median, n=5, plasma, read-out: AUC0–12
  AUC: 1070 ng·h/mL
150 mg, 150 mg BID, C1D1, median, n=6, plasma, read-out: AUC0–last
  AUC(0-t): 1680 ng·h/mL
150 mg, 150 mg BID, C1D1, median, n=6, plasma, read-out: Cmax
  Cmax: 208 ng/mL
150 mg, 150 mg BID, C1D1, median, n=6, plasma, read-out: Tmax
  Tmax: 2 h
150 mg, 150 mg BID, C1D21, mean, n=6, plasma, read-out: AUC0–12
  AUC: 4620 ng·h/mL
150 mg, 150 mg BID, C1D21, mean, n=6, plasma, read-out: AUC0–last
  AUC(0-t): 9080 ng·h/mL
150 mg, 150 mg BID, C1D21, mean, n=6, plasma, read-out: Cmax
  Cmax: 527 ng/mL
150 mg, 150 mg BID, C1D21, mean, n=6, plasma, read-out: Tmax
  Tmax: 3.5 h
150 mg, 150 mg BID, C1D21, median, n=6, plasma, read-out: AUC0–12
  AUC: 4860 ng·h/mL
150 mg, 150 mg BID, C1D21, median, n=6, plasma, read-out: AUC0–last
  AUC(0-t): 10000 ng·h/mL
150 mg, 150 mg BID, C1D21, median, n=6, plasma, read-out: Cmax
  Cmax: 549 ng/mL
150 mg, 150 mg BID, C1D21, median, n=6, plasma, read-out: Tmax
  Tmax: 2.9 h
150 mg, QD, C1D1, read-out: AUC0–12, Mean
  AUC: 946 ng·h/mL
150 mg, QD, C1D1, read-out: AUC0–12, Median
  AUC: 892 ng·h/mL
150 mg, QD, C1D1, read-out: AUC0–last, Mean
  AUC(0-t): 1610 ng·h/mL
150 mg, QD, C1D1, read-out: AUC0–last, Median
  AUC(0-t): 1460 ng·h/mL
150 mg, QD, C1D1, read-out: Cmax, Mean
  Cmax: 156 ng/mL
150 mg, QD, C1D1, read-out: Cmax, Median
  Cmax: 126 ng/mL
150 mg, QD, C1D1, read-out: Tmax, Mean
  Tmax: 5.5 h
150 mg, QD, C1D1, read-out: Tmax, Median
  Tmax: 2.1 h
150 mg, QD, C1D21, read-out: AUC0–12, Mean
  AUC: 2140 ng·h/mL
150 mg, QD, C1D21, read-out: AUC0–12, Median
  AUC: 2080 ng·h/mL
150 mg, QD, C1D21, read-out: AUC0–last, Mean
  AUC(0-t): 3620 ng·h/mL
150 mg, QD, C1D21, read-out: AUC0–last, Median
  AUC(0-t): 3510 ng·h/mL
150 mg, QD, C1D21, read-out: Cmax, Mean
  Cmax: 254 ng/mL
150 mg, QD, C1D21, read-out: Cmax, Median
  Cmax: 269 ng/mL
150 mg, QD, C1D21, read-out: Tmax, Mean
  Tmax: 2.6 h
150 mg, QD, C1D21, read-out: Tmax, Median
  Tmax: 2 h
175 mg, QD, C1D1, n 1, read-out: AUC0–12, Mean
  AUC: 1500 ng·h/mL
175 mg, QD, C1D1, n 1, read-out: AUC0–12, Median
  AUC: 1500 ng·h/mL
175 mg, QD, C1D1, read-out: AUC0–last, Mean
  AUC(0-t): 1580 ng·h/mL
175 mg, QD, C1D1, read-out: AUC0–last, Median
  AUC(0-t): 1580 ng·h/mL
175 mg, QD, C1D1, read-out: Cmax, Mean
  Cmax: 357 ng/mL
175 mg, QD, C1D1, read-out: Cmax, Median
  Cmax: 357 ng/mL
175 mg, QD, C1D1, read-out: Tmax, Mean
  Tmax: 2 h
175 mg, QD, C1D1, read-out: Tmax, Median
  Tmax: 2 h
200 mg, 200 mg BID, C1D1, mean, n=3, plasma, read-out: AUC0–12
  AUC: 985 ng·h/mL
200 mg, 200 mg BID, C1D1, mean, n=3, plasma, read-out: AUC0–last
  AUC(0-t): 2050 ng·h/mL
200 mg, 200 mg BID, C1D1, mean, n=3, plasma, read-out: Cmax
  Cmax: 174 ng/mL
200 mg, 200 mg BID, C1D1, mean, n=3, plasma, read-out: Tmax
  Tmax: 9.7 h
200 mg, 200 mg BID, C1D1, median, n=3, plasma, read-out: AUC0–12
  AUC: 1130 ng·h/mL
200 mg, 200 mg BID, C1D1, median, n=3, plasma, read-out: AUC0–last
  AUC(0-t): 2170 ng·h/mL
200 mg, 200 mg BID, C1D1, median, n=3, plasma, read-out: Cmax
  Cmax: 178 ng/mL
200 mg, 200 mg BID, C1D1, median, n=3, plasma, read-out: Tmax
  Tmax: 3.1 h
200 mg, 200 mg BID, C1D21, mean, n=2, plasma, read-out: AUC0–12
  AUC: 8550 ng·h/mL
200 mg, 200 mg BID, C1D21, mean, n=2, plasma, read-out: AUC0–last
  AUC(0-t): 16400 ng·h/mL
200 mg, 200 mg BID, C1D21, mean, n=2, plasma, read-out: Cmax
  Cmax: 874 ng/mL
200 mg, 200 mg BID, C1D21, mean, n=2, plasma, read-out: Tmax
  Tmax: 2.4 h
200 mg, 200 mg BID, C1D21, median, n=2, plasma, read-out: AUC0–12
  AUC: 8550 ng·h/mL
200 mg, 200 mg BID, C1D21, median, n=2, plasma, read-out: AUC0–last
  AUC(0-t): 16400 ng·h/mL
200 mg, 200 mg BID, C1D21, median, n=2, plasma, read-out: Cmax
  Cmax: 874 ng/mL
200 mg, 200 mg BID, C1D21, median, n=2, plasma, read-out: Tmax
  Tmax: 2.4 h
BID, 75 mg to 200 mg, C1D1, read-out: mean AUC0–last, range across cohorts
  AUC(0-t): 1170 to 2330 ng·h/mL
BID, 75 mg to 200 mg, C1D1, read-out: mean Cmax, range across cohorts
  Cmax: 95.2 to 236 ng/mL
BID, 75 mg to 200 mg, C1D1, read-out: median Tmax, range across cohorts
  Tmax: 2 to 3.1 h
BID, 75 mg to 200 mg, C1D21, read-out: mean AUC0–last, range across cohorts
  AUC(0-t): 4280 to 16400 ng·h/mL
BID, 75 mg to 200 mg, C1D21, read-out: mean Cmax, range across cohorts
  Cmax: 249 to 874 ng/mL
BID, 75 mg to 200 mg, C1D21, read-out: median Tmax, range across cohorts
  Tmax: 1.9 to 2.9 h
QD, 25 mg to 150 mg, C1D21, read-out: mean AUC0–last, range across cohorts
  AUC(0-t): 461 to 3620 ng·h/mL
QD, 25 mg to 150 mg, C1D21, read-out: mean Cmax, range across cohorts
  Cmax: 41.9 to 436 ng/mL
QD, 25 mg to 150 mg, C1D21, read-out: median Tmax, range across cohorts
  Tmax: 1.5 to 2.1 h
QD, 25 mg to 175 mg, C1D1, read-out: mean AUC0–last, range across cohorts
  AUC(0-t): 270 to 1580 ng·h/mL
QD, 25 mg to 175 mg, C1D1, read-out: mean Cmax, range across cohorts
  Cmax: 32.5 to 357 ng/mL
QD, 25 mg to 175 mg, C1D1, read-out: median Tmax, range across cohorts
  Tmax: 0.9 to 2.1 h
After 21 days of BID dosing
  concentration at 21 days: 146 to 472 ng/mL
After 21 days of QD dosing
  concentration at 21 days: 10.3 to 152 ng/mL
overall, as stated in the abstract, read-out: median Tmax
  Tmax: 2 h
Multiple doses, QD and BID
  steady state of plasma concentrations: appeared to reach a steady state by day 21
